# Test results published in patent publication US6759568B2, “High estrogen-sensitive medaka fish” (President of Hiroshima University, priority 2000, dated 2004).
# Columns and labels:
# Assay type in all cases: in vivo, Oryzias latipes
# [1] = system: fertilized eggs (W) of wild medaka fish; assay: Formation of thrombus by 17β-estradiol in fertilized eggs (W) of wild medaka fish; details: 25° C., 3 days
# Experimental: Medaka physiological saline solutions (40 mL for each) containing 17 β-estradiol in an amount of 2 ng/L, 20 ng/L, 200 ng/L, 2 μg/L, 1 mg/L, and 4 mg/L were supplied in culture plates, respectively. Three sets were prepared for each concentration. About 30 fertilized eggs (W) of 12-hours after fertilization which were obtained by mutual mating between wild medaka fish, were placed in the first set of culture plates. About 30 fertilized eggs (A) of 12-hours after fertilization which were obtained by crossing the strain A of the transgenic medaka fish with wild medaka fish, were placed in the second set of culture plates. About 30 fertilized eggs (C) of 12-hours after fertilization which were obtained by crossing the strain C of the transgenic medaka fish with wild medaka fish, were placed in the third set of culture plates. After the culture plates were incubated at 25° C. for 3 days, medaka embryos were checked under dissecting microscope with respect to formation of a thrombus. In almost 100% of the fertilized eggs (W), one or more thrombi were formed at the concentration of 4 mg/L of 17β-estradiol, but were not observed at the concentration of less than 4 mg/L. 1%, 3%, 8%, 49%, 55%, and 100% of the fertilized eggs (A) caused the formation of the thrombi at the concentrations of 2 ng/L, 20 ng/L, 200 ng/L, 2 μg/L, 1 mg/L, and 4 mg/L of 17β-estradiol, respectively. […]
# [2] = system: fertilized eggs (A), strain A of the transgenic medaka fish crossed with wild medaka fish; assay: Formation of thrombus by 17β-estradiol in fertilized eggs (A) of strain A transgenic medaka fish; details: for fertilized eggs that caused the formation of the thrombi: fertilized eggs (A), 25° C., 3 days
# Experimental: (§1) Medaka physiological saline solutions (40 mL for each) containing 17 β-estradiol in an amount of 2 ng/L, 20 ng/L, 200 ng/L, 2 μg/L, 1 mg/L, and 4 mg/L were supplied in culture plates, respectively. Three sets were prepared for each concentration. About 30 fertilized eggs (W) of 12-hours after fertilization which were obtained by mutual mating between wild medaka fish, were placed in the first set of culture plates. About 30 fertilized eggs (A) of 12-hours after fertilization which were obtained by crossing the strain A of the transgenic medaka fish with wild medaka fish, were placed in the second set of culture plates. About 30 fertilized eggs (C) of 12-hours after fertilization which were obtained by crossing the strain C of the transgenic medaka fish with wild medaka fish, were placed in the third set of culture plates. After the culture plates were incubated at 25° C. for 3 days, medaka embryos were checked under dissecting microscope with respect to formation of a thrombus. In almost 100% of the fertilized eggs (W), one or more thrombi were formed at the concentration of 4 mg/L of 17β-estradiol, but were not observed at the concentration of less than 4 mg/L. 1%, 3%, 8%, 49%, 55%, and 100% of the fertilized eggs (A) caused the formation of the thrombi at the concentrations of 2 ng/L, 20 ng/L, 200 ng/L, 2 μg/L, 1 mg/L, and 4 mg/L of 17β-estradiol, respectively. 19%, 41%, 75%, 73%, 60%, and 100% of the fertilized eggs (C) caused the formation of the thrombi at the same concentrations as mentioned above, respectively.
# [3] = system: fertilized eggs (C), strain C of the transgenic medaka fish crossed with wild medaka fish; assay: Formation of thrombus by 17β-estradiol in fertilized eggs (C) of strain C transgenic medaka fish; details: for fertilized eggs that caused the formation of the thrombi: fertilized eggs (C), 25° C., 3 days
# Experimental: as §1
compound,measurement,setting,value
C[C@]12CC[C@@H]3c4ccc(O)cc4CC[C@H]3[C@@H]1CC[C@@H]2O [17β-estradiol],fertilized eggs in which one or more thrombi were formed,[1]; 4 mg/L,~100%
same,formation of thrombi,[1]; concentration of less than 4 mg/L,not observed
same,estrogen sensitivity relative to that of the wild medaka fish,[2]; fertilized eggs (A) versus wild medaka fish,thousand times
same,fertilized eggs that caused the formation of the thrombi,[2]; 2 ng/L,1%
same,fertilized eggs that caused the formation of the thrombi,[2]; 20 ng/L,3%
same,fertilized eggs that caused the formation of the thrombi,[2]; 200 ng/L,8%
same,fertilized eggs that caused the formation of the thrombi,[2]; 2 μg/L,49%
same,fertilized eggs that caused the formation of the thrombi,[2]; 1 mg/L,55%
same,fertilized eggs that caused the formation of the thrombi,[2]; 4 mg/L,100%
same,estrogen sensitivity relative to that of the wild medaka fish,[3]; fertilized eggs (C) versus wild medaka fish,hundred thousand times
same,fertilized eggs that caused the formation of the thrombi,[3]; 2 ng/L,19%
same,fertilized eggs that caused the formation of the thrombi,[3]; 20 ng/L,41%
same,fertilized eggs that caused the formation of the thrombi,[3]; 200 ng/L,75%
same,fertilized eggs that caused the formation of the thrombi,[3]; 2 μg/L,73%
same,fertilized eggs that caused the formation of the thrombi,[3]; 1 mg/L,60%
same,fertilized eggs that caused the formation of the thrombi,[3]; 4 mg/L,100%
